Measured values taken from US11202789B2, “Method of treating glycogen storage disease” (Viking Therapeutics, Inc., priority 2016, dated 2021).
Entries after “also recorded” stand apart in the source; their conditions may differ.

Tests used:
Format in all cases: in vivo
[1] = tested on: beagle dogs; assay: Compound 2 dosing study in dogs: plasma cholesterol; settings: for average reduction of total plasma cholesterol levels: Day 15, from baseline
Protocol: Compound 2 Dosing Study in Dogs: The objective of the study was to determine the effects of oral administration of Compound 2 once-daily for 14 days followed by alternate day dosing for 14 days on plasma cholesterol levels and indicators of thyroid function in beagle dogs. Compound 2 was formulated with Lutrol F68 NF (Poloxomer 188) and carboxymethylcellulose (CMC; sodium salt/high viscosity) and was administered as a suspension in 0.5% CMC/1% Lutrol in deionized water. […] At the end of the treatment cycle (Cycle 1), the dogs were washed out for 4 weeks and then entered into a second 14-day treatment cycle. Cycle 2 employed the same dosing paradigm as Cycle 1, but animals were randomized to Cycle 2 in such a way that the combined dosing groups from the two cycles consisted of 4 different animals (2 males, 2 females) each. At the conclusion of Cycle 2, dosing was continued on alternate days for an additional 14-day period (Cycle 2 Extension). Blood samples were collected at baseline and appropriate time intervals thereafter and analyzed for total plasma cholesterol levels, serum levels of total T4 (tT4), free T4 (fT4), total T3 (tT3), free T3 (fT3), and thyroid stimulating hormone (TSH).

[2] = tested on: normal (wild type) mice; assay: Wild type mice treated alongside the G6PC−/− model (Example 12); settings: wild type (wt) mice
Protocol: (§1) Compound 2 was tested in a G6PC−/−mouse model of GSD Ia. Daily injection of 0.1 to 0.2 mL 10% dextrose subcutaneously was initiated within 3 days of age for G6PC−/−mice. All G6PC−/−mice continued to receive daily dextrose injections during this time. Blood was collected at time of euthanasia, when tissues were collected. Two groups of 4 G6PC−/−mice (1 group treated with Compound 2, 1 group treated with vehicle) were analyzed to identify statistically significant differences between Compound 2-treated and vehicle-treated controls. We also treated 2 groups of 3 normal (wild type) mice, one with Compound 2 and one with vehicle.
(§2) Initially the GSD Ia mice were treated with Compound 2 from 5 to 10 days of age. Body mass, liver mass, liver glycogen concentration, liver triglycerides, fasting serum glucose, fasting serum triglycerides, and GSD-related cell signaling pathways were examined. Similarly, groups of GSD Ia mice were treated with vehicle for 5 days to serve as mock-treated controls for all assays. Groups of 3-4 mice were evaluated. GSD Ia mice were treated for >7 days to assess survival and longer-term effects of Compound 2 as described above (GSD Ia mice rarely survive >12 days of life without a therapeutic intervention). Metabolomic analysis of hepatic extracts were performed as described (Sinha, Farah et al. (2013), Hepatology 59(4):1366-80). Acylcarnitine and amino acid profiling were employed to detect any changes related to increased lipolysis and fatty acid beta-oxidation as described by Sinha et al. (Sinha, Farah et al. (2013), Hepatology 59(4):1366-80). […] Mean liver triglyceride content was reduced by more than 60% in Compound 2-treated animals relative to vehicle-treated control animals, while average liver weight was reduced by more than 30% vs. controls. Importantly, average liver weight as a percent of total body weight also declined by approximately 20% in treated vs. control animals. Further, treatment with Compound 2 led to statistically significant reductions in key metabolic markers of GSD Ia.

[3] = tested on: male Zucker Diabetic fatty (ZDF) rats; assay: 4-week (28 days) efficacy and safety study in male Zucker Diabetic fatty (ZDF) rats
Protocol: Objectives: The objective of the study was to evaluate the efficacy and safety of Compound 2 treatment for 4 weeks in male Zucker Diabetic fatty (ZDF) rats. Total plasma cholesterol, blood glucose levels, liver and muscle glycogen levels, and a plasma clinical chemistry were evaluated. Additionally, histological and biochemical assessments of hepatic steatosis were performed post-mortem. MB07875, a known human thyroid hormone receptor ligand, was included as a comparator in these studies.
Methods: Eight-week old male ZDF rats (n=5/group) were treated orally with Compound 2 or MB07875 for 28 days. The doses of Compound 2 [in 0.5% carboxymethylcellulose (CMC)] were 0.25, 0.5, 1, 2.5, 5, 15 and 50 mg/kg/day. The dose of MB07875 (in 0.5% CMC) was 0.2 mg/kg/day. Body weight was assessed just prior to treatment and at 24 hours following the last dose. Total plasma cholesterol and blood glucose were measured on a weekly basis. […] In addition, the liver was removed and weighed, and a portion freeze-clamped for glycogen and triglyceride analysis. Another portion was placed in 10% neutral buffered formalin for hematoxalin and eosin (H & E) staining. Finally, the heart was excised and weighed.

[4] = tested on: G6PC−/− mice; assay: G6PC−/− mouse model of GSD Ia (Example 12)
Protocol: as §1, §2

[5] = Compound 2 0.25-50 mg/kg/day oral, 28 days

**Q.** For `Cc1cc(OCP2(=O)OCCC(c3cccc(Cl)c3)O2)cc(C)c1Cc1ccc(O)c(C(C)C)c1` (stereo not shown) [Compound 2], which “effects on total plasma cholesterol levels” value ([1]; 0.1 mg/kg/day oral once-daily) is on record?
**A.** minimal effects

**Q.** What about the “average reduction of total plasma cholesterol levels from baseline” value ([1]; Day 15, 0.3 mg/kg/day oral once-daily for 14 days) of the same compound?
**A.** ~22%

**Q.** And the “average reduction of total plasma cholesterol levels from baseline” value ([1]; Day 15, 10 mg/kg/day oral once-daily for 14 days)?
**A.** ~47%

**Q.** What about the “average reduction of total plasma cholesterol levels” value ([1]; 0.3 mg/kg/day oral once-daily for 14 days) of the same compound?
**A.** ~28 mg/dL

**Q.** And the “average reduction of total plasma cholesterol levels” value ([1]; 10 mg/kg/day oral once-daily for 14 days)?
**A.** ~71 mg/dL

**Q.** What about the “total plasma cholesterol levels relative to vehicle-treated animals” value ([1]; alternate day dosing for 14 days (Cycle 2 Extension)) of the same compound?
**A.** remained reduced relative to vehicle-treated animals to a similar or greater extent than observed after once-daily dosing

**Q.** What about the body mass ([2]; vs vehicle-treated controls (FIG. 15)) of the same compound?
**A.** reduced

**Q.** And the liver mass ([2]; vs vehicle-treated controls (FIG. 16))?
**A.** reduced

**Q.** What about the “liver mass as a percentage of body mass” value ([2]; vs vehicle-treated controls (FIG. 17)) of the same compound?
**A.** reduced

**Q.** What about the liver glycogen levels ([2]; vs vehicle-treated controls (FIG. 18)) of the same compound?
**A.** significantly reduced

**Q.** And the serum triglycerides ([2]; vs vehicle-treated controls (FIG. 19))?
**A.** somewhat enhanced

**Q.** What about the liver triglyceride concentrations ([2]; vs vehicle-treated controls (FIG. 20)) of the same compound?
**A.** reduced

**Q.** What about the total liver triglycerides ([2]; vs vehicle-treated controls (FIG. 21)) of the same compound?
**A.** reduced

**Q.** And the “reduction of total plasma cholesterol” value ([3]; 1 mg/kg/day oral, day 28, vs vehicle)?
**A.** ~25%

**Q.** What about the total bilirubin increased ([3]; 2.5 mg/kg/day oral, day 28) of the same compound?
**A.** ~86%

**Q.** What about the “blood glucose levels decreased” value ([3]; 2.5 mg/kg/day oral, day 28, vs vehicle) of the same compound?
**A.** ~47%

**Q.** And the albumin-to-globulin ratio increased ([3]; 15 mg/kg/day oral, day 28)?
**A.** 21%

**Q.** What about the “blood urea nitrogen decreased” value ([3]; 15 mg/kg/day oral, day 28) of the same compound?
**A.** ~21%

**Q.** What about the “liver glycogen levels reduced” value ([3]; 50 mg/kg/day oral, 28 days, dose-dependent) of the same compound?
**A.** > 90%

**Q.** What about the albumin-to-globulin ratio increased ([3]; 50 mg/kg/day oral, day 28) of the same compound?
**A.** 32%

**Q.** What about the alkaline phosphatase decrease ([3]; 50 mg/kg/day oral, day 28) of the same compound?
**A.** ~42%

**Q.** What about the “blood urea nitrogen decreased” value ([3]; 50 mg/kg/day oral, day 28) of the same compound?
**A.** ~26%

**Q.** What about the calcium levels decreased ([3]; 50 mg/kg/day oral, day 28) of the same compound?
**A.** ~5%

**Q.** What about the phosphorus levels increased ([3]; 50 mg/kg/day oral, day 28) of the same compound?
**A.** ~27%

**Q.** And the total bilirubin increased ([3]; 50 mg/kg/day oral, day 28)?
**A.** ~79%

**Q.** What about the “total protein levels decreased” value ([3]; 50 mg/kg/day oral, day 28) of the same compound?
**A.** ~10%

**Q.** And the “reduction of total plasma cholesterol” value ([3]; 50 mg/kg/day oral, day 28, vs vehicle)?
**A.** ~34%

**Q.** And the “effect on body weight” value [3, 5]?
**A.** no significant effect

**Q.** And the “effect on heart weight” value [3, 5]?
**A.** no significant effect

**Q.** What about the liver triglyceride content [3, 5] of the same compound?
**A.** no statistically significant decrease

**Q.** And the muscle glycogen levels ([3]; Compound 2 0.25-50 mg/kg/day oral, 28 days, vs vehicle)?
**A.** unaffected; also recorded: no significant differences

**Q.** What about the blood glucose levels ([3]; Compound 2-treated groups (0.25-50 mg/kg/day), any time during the study) of the same compound?
**A.** not increased

**Q.** What about the globulin decreased ([3]; doses of 5 mg/kg/day and above, oral, day 28) of the same compound?
**A.** ≤ 25%

**Q.** And the “microvesicular steatosis, histological analysis of liver sections” value ([3]; doses ≥2.5 mg/kg/day oral, 28 days)?
**A.** decrease

**Q.** And the “decrease in liver glycogen levels relative to vehicle” value ([3]; highest dose evaluated (50 mg/kd/day), after 28 days of dosing)?
**A.** ~90%

**Q.** What about the “cardiovascular function (heart rate, systolic and diastolic aortic pressure, LV dP/dt)” value ([3]; up to 50 mg/kg/day oral, 28 days) of the same compound?
**A.** did not alter

**Q.** And the “average liver weight reduced” value ([4]; Compound 2-treated vs controls)?
**A.** more than 30%

**Q.** What about the “mean liver triglyceride content reduced” value ([4]; Compound 2-treated vs vehicle-treated control animals) of the same compound?
**A.** more than 60%

**Q.** And the body mass ([4]; G6PC−/− mice, vs vehicle-treated controls (FIG. 15))?
**A.** reduced

**Q.** What about the liver mass ([4]; G6PC−/− mice, vs vehicle-treated controls (FIG. 16)) of the same compound?
**A.** reduced

**Q.** What about the “liver mass as a percentage of body mass” value ([4]; G6PC−/− mice, vs vehicle-treated controls (FIG. 17)) of the same compound?
**A.** reduced

**Q.** What about the liver glycogen levels ([4]; G6PC−/− mice, vs vehicle-treated controls (FIG. 18)) of the same compound?
**A.** somewhat enhanced

**Q.** What about the serum triglycerides ([4]; G6PC−/− mice, vs vehicle-treated controls (FIG. 19)) of the same compound?
**A.** somewhat enhanced

**Q.** And the liver triglyceride concentrations ([4]; G6PC−/− mice, vs vehicle-treated controls (FIG. 20))?
**A.** reduced

**Q.** And the total liver triglycerides ([4]; G6PC−/− mice, vs vehicle-treated controls (FIG. 21))?
**A.** reduced

**Q.** And the “average liver weight as a percent of total body weight declined” value ([4]; treated vs control animals)?
**A.** approximately 20%
